# Values of other authors as cited in EP0523845A2, “New benzodiazepine analogs” (MERCK & CO. INC., priority 1991, dated 1993).
# Conditions: cited from Deschodt-Lanckman et al., Reg. Pept. 2, 15 (1981)
compound,measurement,value
"CSCC[C@H](NC(=O)[C@H](Cc1ccc(OS(=O)(=O)O)cc1)NC(=O)[C@@H](N)CC(=O)O)C(=O)NCC(=O)N[C@@H](Cc1c[nH]c2ccccc12)C(=O)N[C@@H](CCSC)C(=O)N[C@@H](CC(=O)O)C(=O)N[C@@H](Cc1ccccc1)C(N)=O [CCK-8s, H-Asp-Tyr(S03H)-Met-Gly-Trp-Met-Asp-Phe-NH2]",half-life,less than 1 hour
